Data published in article PMC7422721 (ACS chemical biology, 2019).

Key:
RNF4 [1] = molecular target: T1, RNF4 (Homo sapiens, UniProt P78317); assay: competitive gel-based ABPP against IA-rhodamine labeling of pure RNF4; type: binding
T1 sequence (P78317 1-190): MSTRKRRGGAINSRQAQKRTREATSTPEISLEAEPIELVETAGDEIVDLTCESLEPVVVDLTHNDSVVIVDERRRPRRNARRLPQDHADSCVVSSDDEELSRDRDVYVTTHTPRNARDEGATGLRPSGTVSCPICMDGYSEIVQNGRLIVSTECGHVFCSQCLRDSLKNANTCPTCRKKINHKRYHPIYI

RNF4 [2] = molecular target: T1, RNF4; assay: LC-MS/MS of covalent adduct on purified RNF4; type: binding

| Compound | IC50 (RNF4 [1]) [nM] | IC50 (RNF4 [2]) |
| --- | --- | --- |
| Cc1sc2c(c1C)C(c1ccc(Cl)cc1)=N[C@@H](CC(=O)NCCCCOc1ccc(Oc3ccc(N(Cc4ccccc4)C(=O)CCl)cc3)cc1)c1nnc(C)n1-2 [CCW 28-3, CCW 28–3] | 540 | – |
| TRH 1–23 [TRH 1-23] | – | double digit micromolar |
